Experimental data from US8383656B2, “Thiazolidinedione energy restriction-mimetic agents” (The Ohio State University Research Foundation, priority 2009, dated 2013).
pIC50: −log10 of the molar value. Entries after “also recorded” stand apart in the source; their conditions may differ. Read-outs that look alike come from different tables or passages of the source.

Legend:
AMPK = assay: Western blot of AMPK phosphorylation in LPS-treated THP-1 macrophages; type: cell-based, human
Method: Western blotting. THP-1 cells were lysed in SDS-sample buffer after washing with iced-PBS buffer, and then heated at 95° C. for 20 minutes. Protein extracts were prepared using M-PER mammalian protein extraction reagent (Pierce, Rockford, Ill.), containing freshly added 1% phosphatase and protease inhibitor cocktails (Calbiochem). After centrifugation of lysates at 13000 g for 10 min, supernatants were collected, and the protein concentration in each sample was determined by protein assay (Bio-Rad). Protein extracts were then suspended in 2×SDS sample buffer, separated by electrophoresis in 10% SDS-polyacrylamide gels, and transferred to nitrocellulose membranes using a semidry transfer cell. The transblotted membrane was washed twice with Tris-buffered saline containing 0.1% Tween-20 (TBST). After blocking with TBST containing 5% nonfat milk for 1 h, the membrane was incubated with primary antibodies: p172Thr-AMPK, AMPK, p705Tyr-STAT3 and STAT3 (Cell Signaling Technology; Beverly, Mass.); p389Thr-p70S6K and p70S6K (Santa Cruz Biotechnology; Santa Cruz, Calif.), each at 1:1,000 dilution in 1% TBST-nonfat milk at 4° C. overnight. After incubation with the primary antibody, the membrane was washed three times with TBST for a total of 30 min, followed by incubation with horseradish peroxidase-conjugated goat anti-mouse IgG (diluted 1:2500) for 1 h at room temperature. […]

[1] = tested on: AMPK in C-26 colon adenocarcinoma cells; assay: Western blot of AMPK phosphorylation in C-26 cells; type: cell-based; settings: dose- and time-dependent, 10% FBS-containing medium
Method: (§1) Cells and cell culture. THP-1 monocytic cells were purchased from the American Type Culture Collection (Rockville, Md.), and maintained with L-glutamine-containing RPMI 1640 supplemented with 10% fetal bovine serum (FBS), 0.25% glucose, 0.01% sodium pyruvate, 50 μM 2-mercaptoethanol, and 0.1 ml/ml penicillin/streptomycin/L-glutamine. Differentiation of THP-1 monocytes into macrophages was carried out by exposure to PMA (50 nM) in the aforementioned RPMI 1640 medium for 24 h. Colon-26 (C-26) adenocarcinoma cells were provided by a researcher at The Ohio State University. The C-26 cells were maintained in RPMI 1640 medium supplemented with 5% FBS and 1% penicillin/streptomycin.
Western blotting. THP-1 cells were lysed in SDS-sample buffer after washing with iced-PBS buffer, and then heated at 95° C. for 20 minutes. Protein extracts were prepared using M-PER mammalian protein extraction reagent (Pierce, Rockford, Ill.), containing freshly added 1% phosphatase and protease inhibitor cocktails (Calbiochem). After centrifugation of lysates at 13000 g for 10 min, supernatants were collected, and the protein concentration in each sample was determined by protein assay (Bio-Rad). Protein extracts were then suspended in 2×SDS sample buffer, separated by electrophoresis in 10% SDS-polyacrylamide gels, and transferred to nitrocellulose membranes using a semidry transfer cell. […]

[2] = tested on: LPS-stimulated IL-6 production in THP-1 macrophages; assay: ELISA of LPS-stimulated IL-6 production in THP-1 macrophages; type: cell-based, human; settings: for first-tier screening result (AMPK/mTOR activation status and IL-6/IL-6 receptor signaling): LPS-stimulated THP-1 macrophages; for inhibition at 10 µM: read-out: inhibition of IL-6 production
Method: as §1
ELISA. IL-6 release by differentiated THP-1 macrophages in response to 10 ng/ml of LPS was analyzed by using the IL-6 ELISA kit (Cayman Chemical Co.; Ann Arbor, Mich.) according to the manufacturer's instruction in triplicate. The effect of each test compound on LPS-stimulated IL-6 release is presented as percent inhibition and was calculated using the following formula: percentage inhibition=100%×{1−[(O.D. of sample−O.D. of control)/(O.D. of LPS−O.D. of control)]}.

[3] = tested on: β-TrCP, Sp1, and androgen receptor (AR) expression in PrECs; assay: Western blot of β-TrCP, Sp1 and AR in PrECs; type: cell-based; settings: escalating concentrations, 48 h
[4] = tested on: [3H]-2-DG uptake into LNCaP cells; assay: Glucose uptake assay ([3H]-2-DG); type: cell-based; settings: OSU-CG12 at 5 and 10 μM, resveratrol at 50 and 100 μM, P<0.05
Method: After washing cells with PBS, glucose uptake was initiated by addition of 1 mL of PBS containing 1 μCi/mL [^3H]-2-DG (Perkin Elmer, Waltham, Mass.) and […] nonradioactive 2-DG. After 5 min, glucose uptake was terminated by extensive washing with PBS, and cells were solubilized in 0.1% SDS buffer. Aliquots were taken for measurements of radioactivity using a scintillation counter LS6500 (Beckman).

[5] = tested on: Sirt1 gene expression in LNCaP cells; assay: Time course of Sirt1 expression in LNCaP cells (Western blot/RT-PCR); type: cell-based; settings: OSU-CG12 10 μM, 2-DG 10 mM
Method: Total RNA was isolated from drug-treated LNCaP cells using the RNeasy mini kit (Qiagen, Valencia, Calif.), and then reverse-transcribed to cDNA using the Omniscript RT Kit (Qiagen) according to manufacturer's instructions. PCR products were separated electrophoretically in 1% agarose gels and visualized by ethidium bromide staining.
(§2) Transfections were performed by electroporation using Nucleofector kit R of the Amaxa Nucleofector system (Amaxa Biosystems, Cologne, Germany). LNCaP cells were transfected with the following plasmids or siRNA: WT- and H363Y-Flag-Sirt1 (DN-Sirt1), WT- and K45R-Myc-AMPK (DN-AMPK), GFP-LC3, TSC2 shRNA, and DDIT3 siRNA (GADD153). […] For the fluorescent microscopic analysis, LNCaP cells transfected with the GFP-LC3 expression plasmid or with scrambled or TSC2 shRNA were treated as indicated for 36 h. After cells were fixed with 3.7% formaldehyde at room temperature for 20 min, nuclear counterstaining was performed using a 4,6-diamidino-2-phenylindole (DAPI)-containing mounting medium (Vector Laborotaries, Burlingame, Calif.) before examination. Images were observed using a Nikon microscope (Eclipse TE300).

[6] = tested on: conversion of LC3-I to LC3-II in LNCaP cells; assay: GFP-LC3 conversion (autophagy) in LNCaP cells; type: cell-based; settings: 5 μM, GFP-LC3-transfected LNCaP cells
Method: as §2

tumor xenograft = assay: Tumor xenograft growth and acute toxicity; settings: in vivo
[7] = tested on: LNCaP prostate cancer cells; assay: MTT cell viability assay, LNCaP cells; type: cell-based; settings: Homo sapiens
Method: The compounds were tested for their ability to decrease LNCaP prostate cancer cell viability as measured by the 3-(4,5-dimethylthiazol-2-yl)-2,5-diphenyltetrazolium bromide) (MTT) assay.
(§3) Cell viability was determined using the 3-(4,5-dimethylthiazol-2-yl)-2,5-diphenyltetrazolium bromide) (MTT) assay. LNCaP and MCF-7 cells were seeded in 96-well plates (5000 cells/well) and incubated in their respective culture media supplemented with 10% FBS for 24 h. […] Drug-containing medium was then replaced with 1×MTT (0.5 mg/mL in RPMI 1640), followed by incubation at 37° C. for 2 h. After removal of medium, the reduced MTT dye was solubilized in 200 μL/well DMSO, and absorbances were measured at 570 nm.

[8] = tested on: human tumor cell lines of the cancer screening panel; assay: NCI60 cell line screening; type: cell-based; settings: 48 h, SRB; variety of cancer cell types
Method: The NCI60 screening method was carried out using the following methodology. The human tumor cell lines of the cancer screening panel were grown in RPMI 1640 medium containing 5% fetal bovine serum and 2 mM L-glutamine. The cells were then inoculated into 96 well microtiter plates in 100 μL at plating densities ranging from 5,000 to 40,000 cells/well depending on the doubling time of individual cell lines. After cell inoculation, the microtiter plates are incubated at 37° C., 5% CO2, 95% air and 100% relative humidity for 24 h prior to addition of the thiazolidinedione derivatives. […]
Following drug addition, the plates were incubated for an additional 48 h at 37° C., 5% CO2, 95% air, and 100% relative humidity. […] Bound stain is subsequently solubilized with 10 mM trizma base, and the absorbance was read on an automated plate reader at a wavelength of 515 nm. […] Using the seven absorbance measurements [time zero, (Tz), control growth, (C), and test growth in the presence of drug at the five concentration levels (Ti)], the percentage growth is calculated at each of the drug concentrations levels. Percentage growth inhibition is calculated as: [(Ti−Tz)/(C−Tz)]×100 for concentrations for which Ti>/=Tz [(Ti−Tz)/Tz]×100 for concentrations for which Ti<Tz.
Three dose response parameters were calculated for each experimental agent. […]

[9] = tested on: MCF-7 breast cancer cells; assay: MTT cell viability assay, MCF-7 cells; type: cell-based; settings: Homo sapiens, MCF7, 72 h, 10% FBS-supplemented medium, read-out: IC50 in inhibiting the viability of MCF-7 breast cancer cells
Method: as §3

THP-1 cells = assay: MTT viability of THP-1 cells; type: cell-based, human; settings: at the concentrations used for IL-6 ELISA (dose range b224, 10 μM b226, 1 μM b229)

Row | pIC50 ([2]; Homo sapiens, THP-1, 6 h, 10% FBS-containing medium, read-out: IC50 for inhibition of LPS-stimulated IL-6 production) | Structure (SMILES) | potency in activating AMPK relative to AICAR (AMPK; LPS-treated THP-1, 6 h, AICAR 0.5 mM) | p-AMPK level in C-26 colon adenocarcinoma cells [1] | potency in blocking IL-6 release ([2]; 1 μM, 6 h, LPS-stimulated THP-1) | first-tier screening result (AMPK/mTOR activation status and IL-6/IL-6 receptor signaling) ([2]; 10 μM) | inhibition at 10 µM ([2]; Homo sapiens, 10 μM, 6 h, LPS-stimulated THP-1) [%] | expression levels of β-TrCP, Sp1, and AR in PrECs [3] | inhibition of glucose uptake [4] | duration of transient transcriptional activation of Sirt1 gene expression [5] [h] | accumulation of LC3-II (autophagy marker) [6] | acute toxicity (tumor xenograft) | suppression of tumor xenograft growth (tumor xenograft) | pIC50 ([7]; LNCaP, MTT, 72 h, 10% FBS-supplemented medium, read-out: IC50 in inhibiting the viability of LNCaP prostate cancer cells) | pIC50 ([7]; summary over LNCaP and MCF-7 cells, read-out: IC50 in suppressing cancer cell growth) | antitumor potency in NCI 60 cell line screening [8] | inhibition at 10 µM ([2]; Homo sapiens, THP-1, 6 h) [%] | pIC50 [9] | AMPK activation (p-AMPK level) (AMPK; 10 μM, 6 h, LPS-treated THP-1) | effect on viability of THP-1 cells (THP-1 cells) | effect on LPS-stimulated IL-6 production ([2]; 10 μM, 6 h, LPS-stimulated THP-1)
1 | ~6.00 | CC1(CN2C(=O)S/C(=C\c3ccc(NS(=O)(=O)c4ccc([N+](=O)[O-])c(C(F)(F)F)c4)cc3)C2=O)CCCCC1 [Compound 53, N-{4-[3-(1-Methyl-cyclohexylmethyl)-2,4-dioxo-thiazolidin-5-ylidene-methyl]-phenyl}-4-nitro-3-trifluoromethyl-benzenesulfonamide] | two-orders-of-magnitude higher | robust increases in the p-AMPK level | optimal agent; also recorded: highest potency | active | > 80 | – | – | – | – | – | – | – | – | – | – | – | – | – | –
2 | – | CC1(CN2C(=O)S/C(=C\c3ccc(O)c(C(F)(F)F)c3)C2=O)CCCCC1 [OSU-CG12, (Z)-5-(4-Hydroxy-3-trifluoromethyl-benzylidene)-3-(1-methyl-cyclohexylmethy)-thiazolidine-2-4-dione] | – | – | – | active | – | unaltered expression levels | significantly inhibit glucose uptake | 1 | time-dependent accumulation of LC3-II | without incurring acute toxicity | effectiveness in suppressing tumor xenograft growth | 5.24 | 5.30 | significantly antitumor potency | > 80 | 5.30 | – | – | –
3 | – | CC1(COc2ccc(C=C3SC(=O)NC3=O)cc2)CCCCC1 [compound 62] | – | – | – | – | – | – | – | – | – | – | – | – | – | – | – | – | effective in elevating the level of p-AMPK; also recorded: modest activities | neither agent inhibited the viability of THP-1 cells | modest activities
